Assay results published in patent publication US8623900B2, “Amino alcohol derivatives and their therapeutic activities” (Flamma S.p.A., priority 2009, dated 2014).

Experiments:
[1] = carbonyl-quenching activity towards HNE in vitro (residual HNE by reverse-phase chromatography); type: biochemical; conditions: HNE 50 μM, compound 1 mM, phosphate buffer 10 mM, pH 7.4, 37° C.; percentage of HNE reacted after one, two and three hours
Procedure: The pharmacological activity of the compounds according to the invention was determined in vitro by evaluating their carbonyl-quenching activity towards 4-hydroxy nonenal ([…]), which is known for its involvement in numerous disorders.
The activity was evaluated one, two and three hours after incubation, determining the residual HNE content by reverse-phase chromatography as previously described by Aldini G. et al. [Biochem Biophys Res Commun. 2002 Nov. 15; 298(5):699-706]. The carbonyl-quenching activity is evaluated on the basis of the percentage of HNE reacted, compared with the HNE content in the absence of the molecule to be tested.

rat = assay: preliminary toxicological study in the rat; type: in vivo

NCCC(=O)N[C@H](CO)Cc1cnc[nH]1 [3-Amino-N-[(1S)-2-hydroxy-1-(1H-imidazol-5-yl-methyl)-ethyl]propanamide]
carbonyl-quenching activity relative to β-alanyl histidine (standard substance) [1]: 1.66 times | toxic effects (rat; IV, 3 consecutive doses 3, 10 and 30 mg/kg): no toxic effects were observed | toxic effects (rat; intraperitoneal, single dose 100 mg/kg): no toxic effects were observed | toxic effects (rat; per os (gavage), 100 mg/kg/day for 7 days): no toxic effects were observed
